The values below come from US10597398B2, “Suppression and regeneration promoting effect of low molecular weight compound on cancer and fibrosis” (NATIONAL UNIVERSITY CORPORATION TOTTORI UNIVERSITY, priority 2015, dated 2020).

Test [1] relates to HuH-7 cells. The test can be described thus: Growth inhibitory effect on cancer cells (WST assay), Example 2.3. Type of test: cell-based, human. To be noted: HuH-7 cells, WST assay, concentrations 0-50 μM, control 0.1% DMSO. The method in brief: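 HuH-7 human hepatoma cells seeded at 5×10^3 cells/well, treated after 24 h with compound at 0–50 μM (0.1% DMSO vehicle control), n=3. Viability read by WST (CCK-8) absorbance at 450/600 nm after 60 min at 37 °C, taken 0, 24, 48 and 96 h post-treatment; kit-only blank subtracted.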

For a further test, the system named is Wnt/β-catenin signaling. The test can be described thus: Inhibitory effect on Wnt/β-catenin signaling in mesenchymal stem cells (E7-TCF4 luciferase). It counts as cell-based, human. Particulars: concentration equal to or lower than that of IC-2. The protocol: A pTCF4-CMVpro-GL4.20 plasmid vector, having 3 copies of TCF4 motifs (CCT TTG ATC) upstream of aCMV promoter in a multiple cloning site of pGL4.20 (Promega Corp., Fitchburg, Wis.), was linearized and stably transfected into UE7T-13 cells to prepare E7-TCF4 cells. Also, a pCMVpro-GL4.20 plasmid vector, having a CMV promoter in a multiple cloning site of pGL4.20, was linearized and stably transfected into UE7T-13 cells. The resulting stable cells (E7-CMV cells) were cultured, like UE7T-13 cells, in 10% FBS/DMEM containing 0.25 μg/mL puromycin.
UE7T-13 cells were used to measure Wnt/β-catenin signaling activity. The concentrations of the respective compounds were as described in FIG. 42. Each control sample used was 0.1% DMSO, a solvent for each compound.
First, 70 to 90% confluent E7-TCF4 cells and E7-CMV cells were harvested and seeded (n=3) at 1.6758×10^4 cells/well of a 24-well plate (9.0×10^3 cells/cm^2). One day after that, each compound was added to the cells and the mixture was cultured at 37° C. Day 4 after the compound addition, the culture medium was changed.
At day 1, 4, or 8 after the compound treatment, the culture medium was discarded, and 100 μL of room temperature 5×Passive Lysis Buffer (PLB), which had been diluted 5-fold with MilliQ water, was added to each well. Next, the plate was shaken at room temperature for 15 min and was then frozen at −30° C. overnight. A Luciferase Assay Substrate was diluted with 10 mL of room temperature Luciferase Assay Buffer II to prepare Luciferase Assay Reagent II (LARII). The frozen PLB lysate samples were thawed and permeabilized for 15 min. Then, 10 μL aliquots were added to wells of a 96-well white plate. While 50 μL aliquots of LARII were each added to each well, luminescence was quantified by using a 1420 multi-label counter ARVO MX to determine firefly luciferase activity.

Test [2] concerns HuH-7 cells. Kind of test: Growth inhibitory effect on cancer cells (WST assay), Example 6.3. It counts as cell-based, human. On the procedure: HuH-7 cells, a human liver cancer cell line, were cultured on 10-cm cell culture dishes (TPP Techno Plastic Products AG, Trasadingen, Switzerland) by using DMEM under conditions at 5% CO2, 37° C., and 100% humidity. When the cells were 70 to 90% confluent, 200 μL of 0.25% Trypsin/1 mM EDTA solution, which had been prepared by diluting the stock solution 10-fold with PBS (−), was added to detach the cells. Then, the cells were centrifuged at 1000 rpm for 3 min at room temperature. The cells recovered were subcultured at a 1:4 split ratio.
First, 70 to 90% confluent HuH-7 cells were harvested and seeded (n=3) at 1×10^4 cells/well of a 96-well plate (TPP). After 24 h, IC-2 was added to the cells and the mixture was cultured at 37° C. Each control sample (0 μM) used was 1% DMSO, a solvent for each compound. The concentrations of IC-2 used were 0, 1, 5, 10, 25, and 50 μM
Next, day 4 after the IC-2 treatment, 100 μL of DMEM-diluted 10% Cell Counting Kit-8 (DOJINDO LABORATORIES, Kumamoto) was added. The mixture was incubated at 37° C. for 60 min and its absorbance (at a measurement wavelength of 450 nm/control wavelength of 600 nm) was measured by using a Sunrise Rainbow RC (Tecan Group Ltd., Mannedorf, Switzerland). Absorbance for the cells alone was calculated by subtracting, from the reading obtained, absorbance for 10% Cell Counting Kit-8 alone. […]

In test [3] the test system is HSC2 cells (squamous cell carcinoma cells). The test can be described thus: Growth of squamous cell carcinoma cells (Cell Counting Kit-8). To be noted: HSC2 cells, 0, 24, 72, 96 h. It counts as cell-based. On the procedure:
HSC2 cells (squamous cell carcinoma cells) were seeded at 2.5×10^3 cells/well of a 96-well plate (TPP Techno Plastic Products AG, Trasadingen, Switzerland). Next, 0, 24, 72, and 96 h after that, 100 μL of 10% Cell Counting Kit-8 (DOJINDO LABORATORIES, Kumamoto) was added. The mixture was incubated at 37° C. and its absorbance (at a measurement wavelength of 450 nm/control wavelength of 600 nm) was measured by using a Sunrise Rainbow RC (Tecan Group Ltd., Mannedorf, Switzerland).
In general terms: Tetrazolium dyes change colour on reduction, which living cells bring about.

In test [4] the test system is CD44-expressing HSC2 cells. The test can be described thus: CD44-expressing cells in HSC2 cells (cell sorter analysis). Type of test: cell-based, human. Particulars: 48 h, 25 μM IC-2 or 0.5 μM 5-FU, 83.9% without treatment. The protocol:
In addition, HSC2 cells were seeded at 5×10^5 cells/10-cm cell culture dish (TPP). After 24 h, the cells were treated with 0.5 μM of 5-FU or 25 μM of IC-2. Also prepared were cells without low-molecular-weight compound treatment (0 μM). After additional 48 h, the respective cells were harvested. As a primary antibody, used was a mouse anti-human CD44 antibody (Abcam Ltd., Cambridge, UK). Then, Alexa Fluor 488-labeled goat anti-mouse IgG (H+L) (Life Technologies Corp., Carlsbad, Calif.) was used. After that, a cell sorter BD bioscience FACS Aria (Becton, Dickinson and Company, Franklin Lakes, N.J.) was used for analysis.

The structures appear in SMILES notation. pIC50: −log10 of the molar value. Bounds are passed on as bounds.

As usually defined, the pIC50 is the negative decadic logarithm of the IC50, by convention in mol/L. A lower pIC50 goes with a high IC50. In the test with HuH-7 cells [1], `COc1ccc(COc2ccc(CNC(=O)N3CCC(=O)N4C(Cc5ccccc5)C(=O)N(Cc5cccc6ccccc56)CC34)cc2)cc1` (stereo not drawn) [IC-2-OPMB] gave a pIC50 of less than 4.30. Also, in the test with Wnt/β-catenin signaling, the “inhibitory effect on Wnt/β-catenin signaling pathway in mesenchymal stem cells compared with IC-2” value is listed as “more potent inhibitory effect”.

Turning to `O=C1C(Cc2ccccc2)N2C(=O)CCN(C(=O)NCc3ccccc3)C2CN1Cc1cccc2ccccc12` (stereo not drawn) [IC-2], in the test with HuH-7 cells [2] (day 4), the “growth of HuH-7 cells” value is “inhibited the growth of HuH-7 cells”. In the test on HuH-7 cells [2] (day 4, 0-50 μM, control 1% DMSO), this molecule showed a pIC50 of 4.59. Moreover, the “growth inhibitory effect on squamous cell carcinoma cells” value in test [3] is listed as “exhibited a growth inhibitory effect”. The “percentage of CD44-expressing cells” value in test [4] came to 71.4%.
